Reference: patent US6124287A, “Imidazo[1,2-a]quinoxalin-4-amines active as adenosine antagonists, process for their preparation and pharmaceutical compositions thereof” (Biomedica Foscama Industria Chimicofarmaceutica S.p.A., priority 1995, dated 2000)
Values belong to the molecule of their own block, whether it stands above or below them.

Assays:
A1 receptors [1] = target: T1, A1 receptors (Rattus norvegicus, UniProt P25099); test: Binding on A1 receptors, rat brain synaptosomial membranes, [3H]-DPCPX; details: 0.3 nM [3H]-DPCPX, 1 h, 25° C., pH 7.4
T1 construct: preparations of synaptosomial membranes from rat brain; from tissue; host or cells: rat brain synaptosomal membranes
T1 sequence (P25099 1-326): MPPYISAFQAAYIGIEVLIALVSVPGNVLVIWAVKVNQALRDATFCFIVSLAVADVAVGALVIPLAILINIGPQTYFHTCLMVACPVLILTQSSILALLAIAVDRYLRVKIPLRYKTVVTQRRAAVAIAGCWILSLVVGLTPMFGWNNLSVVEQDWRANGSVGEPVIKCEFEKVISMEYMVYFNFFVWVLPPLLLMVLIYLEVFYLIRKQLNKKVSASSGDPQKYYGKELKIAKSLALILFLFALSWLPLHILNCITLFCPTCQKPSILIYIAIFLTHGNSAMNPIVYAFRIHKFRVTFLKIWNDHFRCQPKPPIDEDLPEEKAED
Method: (§1) Binding on the adenosine receptors.
The binding on A1 receptors has been carried out according to the method described in Naunyn-Schmied. Arch. Pharmacol. 1987, 336, 204 on preparations of synaptosomial membranes from rat brain by incubating 200 μg of membrane proteins for 1 h at 25° C. with the substance to be tested and 0.3 nM [^3 H]-DPCPX in 400 μl of 50 mM Tris.HCl pH=7.4. The non-specific binding has been determined with […].
(§2) The incubations were blocked by filtration by means of a cell-harvester and, after completion of the separation of the bound from the free, the radioactivity contents were evaluated by liquid scintillation. The concentration-inhibition curves were obtained by assaying the receptor displacement at at least ten different concentrations of the test substance (all the assays were carried out in triplicate). The tested substances were dissolved in dimethyl sulphoxide and diluted in 50 mM Tris.HCl buffer pH=7.4. The IC50 values have been determined by non-linear regression curves and transformed into Ki values according to the Cheng-Prusoff equation.

A1 receptors [2] = target: T2, A1 receptors (Rattus norvegicus, UniProt P30543); test: Binding on receptors (printed A1) of rat striatal membranes, [3H]-CGS21680 + CPA; details: 5 nM [3H]-CGS21680, 50 nM CPA, 1 h, 25° C.
T2 construct: preparations of rat striatal membranes; from tissue; host or cells: rat striatal membranes
T2 sequence (P30543 whole entry): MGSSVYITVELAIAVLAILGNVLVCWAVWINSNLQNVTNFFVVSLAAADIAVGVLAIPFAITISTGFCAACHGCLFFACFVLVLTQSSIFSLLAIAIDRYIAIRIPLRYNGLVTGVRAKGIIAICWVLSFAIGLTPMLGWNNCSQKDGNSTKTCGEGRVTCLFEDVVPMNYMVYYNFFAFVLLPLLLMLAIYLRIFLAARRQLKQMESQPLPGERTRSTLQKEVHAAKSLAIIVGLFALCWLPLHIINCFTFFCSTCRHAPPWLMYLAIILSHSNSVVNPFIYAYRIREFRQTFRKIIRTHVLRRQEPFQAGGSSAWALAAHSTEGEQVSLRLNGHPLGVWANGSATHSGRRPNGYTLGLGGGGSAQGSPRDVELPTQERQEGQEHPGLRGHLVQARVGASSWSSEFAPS
Method: as §1
The binding on […] receptors has been carried out according to the method described in FASEB J. 1989, 3, A1047 on preparations of rat striatal membranes by incubating 200 μg of membrane proteins for 1 h at 25° C. with the substance to be tested, 5 nM [^3 H]-CGS21680 and 50 nM CPA. The non-specific binding has been determined with 100 nM CPA.
as §2

Forced swim test = assay type: in vivo, Male ablino CD 1 mice; details: 1 h before immersion
Method: Forced swim test The test described by R. D. Porsolt et al. in Arch.Int.Pharmacodyn.Ther. 1977, 229, 327, has been carried out which is widely used as an animal model for the study of the antidepressant activity of new drugs. Male ablino CD 1 mice weighing 25-35 g were used. One hour before immersion in water, the test compound is intraperitoneally (i.p.) administered to the animal; the vehicle is administered to the control animals. The duration of permanence in water is 6'; from the 2nd to the 6th minute the time is measured during which the animal remains motionless. […] As the reference substance the tricyclic antidepressant drug desipramine was used.

Tail suspension test = assay type: in vivo, Male albino CD 1 mice; details: half an hour before test
Method: Tail suspension test The test described by L. Steru, et al. in Psychopharmacology 1985, 85, 367, also widely used as an animal model for the screening of antidepressant activity has been carried out. Male albino CD 1 mice weighing 25-35 g were used. Half an hour before the test, the animal is administered the test compound by the i.p. route; the control animals are administered the vehicle. The mouse is suspended from a horizontal bar at about 40 cm from the support plane by means of an adhesive tape applied at the end of the tail and secured to a hook. […] As the reference substance the tricyclic antidepressant drug desipramine was used.

adenosine receptors = details: cited from earlier work

Ki (A1 receptors [1]): 54 nM
SMILES: CCC(CC)Nc1nc2ccccc2n2c(C)cnc12 [COMPOUND EX. 5, 4-(1-ethylpropylamino)-1-methylimidazo[1,2-a] quinoxaline]

Ki (A1 receptors [2]): 2500 nM | Ki (A1 receptors [1]): 7.9 nM
SMILES: Cc1cnc2c(NC3CCCC3)nc3ccccc3n12 [COMPOUND EX. 9, 4-cyclopentylamino-1-methyl imidazo [1,2-a]quinoxaline]
% variation immobility time vs. C. (Forced swim test; 0.001 mg/kg i.p.): -32.8% | % variation immobility time vs. C. (Forced swim test; 0.01 mg/kg i.p.): -45.3% | % variation immobility time vs. C. (Tail suspension test; 0.001 mg/kg i.p.): -26.7% | % variation immobility time vs. C. (Tail suspension test; 0.01 mg/kg i.p.): -41.1% | % variation immobility time vs. C. (Tail suspension test; 0.1 mg/kg i.p.): -64.3%

SMILES: Cc1cnc2c(N3CCCCC3)nc3ccccc3n12 [COMPOUND EX. 13, 1-methyl-4-piperidinylimidazo[1,2-a]quinoxaline]
% variation immobility time vs. C. (Forced swim test; 0.1 mg/kg i.p.): -23.5% | % variation immobility time vs. C. (Forced swim test; 1 mg/kg i.p.): -70.7%

SMILES: Cc1cnc2c(N3CCN(C)CC3)nc3ccccc3n12 [COMPOUND EX. 16, 1-methyl-4(N'-methylpiperazinyl)imidazo[1,2-a]quinoxaline]
% variation immobility time vs. C. (Forced swim test; 0.1 mg/kg i.p.): -22.4% | % variation immobility time vs. C. (Forced swim test; 1 mg/kg i.p.): -51.4%

Ki (A1 receptors [1]): 23.5 nM
SMILES: Clc1ccc2nc(NC3CCCC3)c3nccn3c2c1 [COMPOUND EX. 18, 4-cyclopentylamino-8-chloroimidazo[1,2-a]quinoxaline]
% variation immobility time vs. C. (Forced swim test; 1 mg/kg i.p.): -42.3% | % variation immobility time vs. C. (Forced swim test; 10 mg/kg i.p.): -52.8%

SMILES: Cc1cnc2c(NC3CCCCC3)nc3ccc(Cl)cc3n12 [COMPOUND EX. 21, 4-cyclohexylamino-8-chloro-1-methylimidazo[1,2-a]quinoxaline]
% variation immobility time vs. C. (Forced swim test; 0.001 mg/kg i.p.): -33.0% | % variation immobility time vs. C. (Forced swim test; 0.01 mg/kg i.p.): -48.6%

Ki (A1 receptors [1]): 26.5 nM
SMILES: Clc1cc2nc(NC3CCCC3)c3nccn3c2cc1Cl [COMPOUND EX. 22, 4-cyclopentylamino-7,8-dichloroimidazo[1,2-a]quinoxaline]

Ki (A1 receptors [1]): 84 nM
SMILES: Fc1ccc2nc(NC3CCCC3)c3nccn3c2c1 [COMPOUND EX. 25]

SMILES: CNCCCN1c2ccccc2CCc2ccccc21 [DESIPRAMINE, reference compound]
% variation immobility time vs. C. (Forced swim test; 7.5 mg/kg i.p.): -10.4% | % variation immobility time vs. C. (Forced swim test; 30 mg/kg i.p.): -41.4% | % variation immobility time vs. C. (Tail suspension test; 4 mg/kg i.p.): -21.3% | % variation immobility time vs. C. (Tail suspension test; 16 mg/kg i.p.): -62.4%

SMILES: Cn1c(=O)c2c(ncn2C)n(C)c1=O [caffeine, 1,3,7-trimethylxanthine]
affinity to the adenosine receptors (adenosine receptors): low affinity

SMILES: Cn1c(=O)c2[nH]cnc2n(C)c1=O [theophylline, 1,3-dimethylxanthine]
affinity to the adenosine receptors (adenosine receptors): low affinity
